Data on one substance can be found in patent US9925235B2, “Tilapia piscidins for use in enhancement of wound healing” (Academia Sinica, priority 2015, dated 2018).

The subject of data set [1] is Hs-68 human foreskin fibroblast cell line. In kind it is cell-based. How it is done:
An MRSA strain commonly associated with human wound infections was selected to generate a polymicrobial solution. The MRSA strain is a clinical isolate from stool obtained from Taipei City Hospital (Heping Fuyou branch). The strain was identified by routine laboratory methods and stored in 20% (vol/vol) glycerol at −80° C. Tryptic Soy Broth (TSB) was used as the culture medium. HaCaT human keratinocyte cell line and Hs-68 human foreskin fibroblast cell line were grown in DMEM containing 10% (v/v) FBS, 0.37% (w/v) NaHCO3, penicillin (100 unit/ml), streptomycin (100 μg/ml), 0.1 mM NEAA, and 1 mM sodium pyruvate at 37° C. in a humidified incubator under 5% CO2 and 95% air. The cells were harvested at ca. 90% confluence (ca. 10^6 cells/10-cm dish). Balb/c female mice were used for the experiments. All mice were housed in cages under specific pathogen-free conditions, and given water and standard laboratory chow ad libitum during the experiments. All animal handing procedures were in accordance with National Taiwan Ocean University (NTOU) guidelines. All procedures were approved by the Animal Care and Use Committee of NTOU.
Cells were cultured at a density of 5×10^4 cells per well in flat-bottomed 96-well plates. […] Cell proliferation was measured by neutral red, LDH, and MTT assay, according to the manufacturer's instructions. […]

Data set [2] deals with MRSA. The data set is described as follows: Mouse model of MRSA sepsis, TP4. In kind it is in vivo, Balb/c mice. How it is done: Female Balb/c mice (6-8 weeks old) were injected intraperitoneally with 10^6 CFU MRSA per mouse. Ten minutes after MRSA injection, mice were injected intraperitoneally with vancomycin (0.01 mg/g mouse body weight), methicillin (0.01 mg/g mouse body weight), or TP4 (0.005 mg/g mouse body weight). In a second set of experiments, mice were given intraperitoneal injections of TP4 (0.005 mg/g mouse body weight) at 10, 60, 120, or 180 min after MRSA injection. Survival rate and status were recorded every 24 h for up to 192 h. To examine bacterial dissemination, mice were sacrificed at 48 h after injection with antibiotics or TP4, and the bacterial numbers in blood, peritoneum, spleen, liver, and mesenteric lymph nodes were recorded. Colony counts from the diluted bacterial solutions were expressed relative to those at the start of treatment. These experiments consisted of four groups, and each group contained 10 mice.
Infected mice were untreated, or treated with TP4, methicillin, or vancomycin via i.p. injection. Bacterial numbers in blood, peritoneum, spleen, liver, and mesenteric lymph nodes were subsequently recorded. Colony counts from the diluted bacterial solutions are expressed relative to those at the start of treatment. Each value represents the mean value from three determinations±standard deviation (SD).

Setting [3] is: 48 hours after the last treatment.

For “Tilapia piscidin 4 (FIHHIIGGLFSAGKAIHRLIRRRRR; listed as Oreochromis niloticus) [TP4]”, the cytotoxic effects entry in data set [1] was “did not exhibit cytotoxic effects”. Besides, the cell proliferation result in data set [1] (Hs-68 cells, low doses, 48 h) is recorded as “significantly increased”. In addition, in data set [2] (setting [3]), the “Mean ± SD count, Blood” value is 0^A CFU/mL. For the same substance, the “Mean ± SD count, Liver” value in data set [2] (setting [3]) is given as 2.4 × 10^4 ± 1 × 10^6A CFU/mL. In addition, the “Mean ± SD count, Mesenteric lymph nodes” value in data set [2] (setting [3]) is recorded as 6 × 10^5 ± 1 × 10^5A CFU/mL. Besides, the “Mean ± SD count, Peritoneum” value in data set [2] (setting [3]) is 1 × 10^6 ± 1 × 10^4A CFU/mL. Besides, the “Mean ± SD count, Spleen” value in data set [2] (setting [3]) is listed as 3 × 10^6 ± 1.2 × 10^6A CFU/mL. The survival rate was 100% in data set [2] (8 days after MRSA infection, i.p. 10 min after MRSA, TP4 0.005 mg/g, vancomycin and methicillin 0.01 mg/g); 100% in data set [2] (TP4 0.005 mg/g injected 10 min after MRSA); 80% in data set [2] (TP4 0.005 mg/g injected 60 min after MRSA); 60% in data set [2] (TP4 0.005 mg/g injected 120 min after MRSA); 50% in data set [2] (TP4 0.005 mg/g injected 180 min after MRSA). In addition, the “bacterial burden in organs vs untreated controls” value in data set [2] (P<0.05) is on record as “significantly reduced the bacterial burden in all examined organs”. For the same substance, in data set [2] (monitored for 2 day after injection, MRSA 10^6 CFU i.p.), the “% lethality” value is 0^A %.
